{
  "source": "patent US8349793B2",
  "about": "“Method for treatment of inflammatory disease and disorder” (Heal0r, Ltd., priority 2010, dated 2013)",
  "key": {"[1]": {"tested_on": "healthy volunteers", "assay": "Histamine prick test model of pruritus", "type": "in vivo, human (healthy volunteers)", "details": "for Pruritus score after minutes of histamine, 5 minutes / Pruritus score after minutes of histamine, 15 minutes: topical on forearm", "procedure": "Forearms of individual subjects were injected with histamine solution and placebo. The formulation of Example 4 was topically applied with MPDY-1 at various concentrations and pruritus was assessed over a time course as shown, for example in FIG. 34.\nThis test was performed by placing a drop of a solution containing a possible allergen on the skin, and a series of scratches or needle pricks allow the solution to enter the skin. The extract enters into the outer layer of the skin (epidermis) using a fine needle (such as a. 26G disposable needle). This testing is not painful, and generally there is no bleeding involved since the needle only scratches the surface of the skin. If the skin develops a red, raised itchy area (called a wheal), it is as a result of allergic reaction to that allergen. This is called a positive reaction. A drop of extract is introduced through a fine needle (such as a No. 26 disposable needle). The test causes no discomfort and minimal trauma so that controls and negative test show only the site of the prick; if anything.\n26G needles were utilized to introduce histamine stock (Histatrol Positive Control Histamine, 1 mg/ml, code #HIST14999V, Trupharm). The test was conducted on healthy volunteers in a double-blind, randomized test. The formulations were applied on the forearms. Three treatment areas were chosen and marked (the surface of the forearm from the elbow to the wrist was divided transversely into proximal, middle and distal thirds); the areas were pricked prior the below treatments.\nAn area was treated with the active formulation in a double-blind manner, for 10 minutes—marked as A.\nAn area was treated with the Placebo in a double-blind manner, for 10 minutes—marked as C.\nA color photograph was taken at time zero (T0), after 10, 20, 30 minutes.\nPruritus questionnaire was answered by the subjects 5 and 15 minutes after treatment.\nIn one study, three subjects were treated, in the left or right arm, with MDPY-1 in gel or cream formulations, or with control formulations, as shown in Table 9.\nSubjects were provided with pruritus sensation forms and asked to indicate the level of pruritus sensed from 0 (no response) to 4 (uncontrollable pruritus) at different time intervals."}, "[2]": {"tested_on": "C57BL/6J mouse", "assay": "Wound model of skin inflammation, immunohistochemical staining (ICAM-1, Iba-1, MAC-2, CD3, neutrophils)", "type": "in vivo", "details": "treated daily", "text": "A methodology was developed to detect and quantitatively assess inflammation in skin lesions in a wound setting which allows one to follow cutaneous inflammatory response in the different skin compartments and identify agents that affect this response (as a preliminary screening). Inflammatory response was considered severe when two of the following three conditions were evident: (1) abscess formation; (2) excessive leukocytosis (>100 cells in a fixed field×200); (3) high WB C/RBC ratio in blood vessels, where >20% of WBC content within the blood vessels is shown in a fixed field×200. Mechanistic characterization of the immunological response is studied utilizing markers to identify infiltration and activation of specific immunological cells. Examples for such markers are: ICAM-1 (as a marker activated basal keratinocytes and endothelial cells), MAC-2 (as a marker for activated macrophages) and CD3 (T cell marker).\nA two-cm longitudinal incision was done on the upper back of a C57BL/6J mouse. Following wounding, a sterile pad was sutured to the mouse's skin. Animals were treated daily with HO/02/10 (n=12). Five days post-wounding, when inflammatory phase reaches its peak, the mice were sacrificed, skin tissues were embedded in paraffin and immunohistochemical staining was performed utilizing anti-ICAM-1 antibodies.\nAs above, a two-cm longitudinal incision was done on the upper back of a C57BL/6J mouse. Following wounding, a sterile pad was sutured to the mouse's skin. Animals were treated daily with MPDY-1 (n=6). Five days post-wounding, when inflammatory phase reaches its peak, the mice were sacrificed, skin tissues were embedded in paraffin and immunohistochemical staining was performed utilizing anti-ICAM-1 antibodies.\nThe effect of MPDY-1 on macrophage infiltration was also shown by Iba-1 staining. Iba-1 is a general marker for macrophages. […] As above, a two-cm longitudinal incision was done on the upper back of a C57BL/6J mouse. Following wounding, a sterile pad was sutured to the mouse's skin. Animals were treated daily with MPDY-1 (n=6). […]"}, "[3]": {"tested_on": "IKK", "assay": "TNFα induced IKK activation in keratinocytes (Western Blot, phospho-IKKa/b)", "type": "cell-based, Murine", "details": "TNFα 35 ng/ml for 15 minutes", "procedure": "Murine primary keratinocytes were grown for 4 days to full confluence in Low Ca^+2 MEM. Cells were pretreated with designated concentration of MPDY-1 as described in the figure for 1 hour, prior to TNFα induction. Following MPDY-1 pretreatment, cells were incubated with TNFα 35 ng/ml for 15 minutes. Reaction was stopped by adding ice-cold dPBS−/− and keratinocytes were homogenized in RIPA buffer. Samples were subjected to SDS PAGE Western Blot analysis, utilizing phospho-IKKa/b (Ser176/180 antibody)."}, "[4]": {"tested_on": "keratinocytes", "assay": "Cytokine secretion in keratinocytes stimulated by LPS, TNFα or IL-17 (ELISA)", "type": "cell-based, BALB/C mice", "procedure": "To determine their effects, keratinocytes were derived from newborn BALB/C mice skin. The cells were incubated for 5 days in 24 wells plate. Cells were then incubated with PBS−/− as control or stimulated by LPS, TNFα, or IL-17. PKCα inhibitors were added as indicated. Medium containing secreted cytokines was collected after 48 hr and analyzed using ELISA. FIG. 40 is a tabular summary of cytokine secretion.\nPKCδactivators were also shown to have an anti-inflammatory effect on keratinocytes and splenocytes. Keratinocytes were derived from newborn BALB/C mice skin. The cells were incubated for 5 days in 24 wells plate. Cells were then incubated with PBS−/− as control or stimulated by LPS or TNFα. The PKCδ inhibitor DAP-1 (SEQ ID NO: 16) was added. Medium containing secreted cytokines was collected after 48 hr and analyzed using ELISA. FIG. 35 is a tabular summary showing cytokine secretion in splenocytes stimulated with LPS. […] Cytokine secretion in keratinocytes stimulated by TNFα: following stimulation with 35 ng/ml TNFα. And treatment with 10 μg/ml of DAP-1, the cytokine levels of IL-1α, G-CSF, MIP-2 and KC were reduced by 95%, 70%, 20% and 30# respectively.\nPKCε inhibitors were also shown to have an anti-inflammatory effect on keratinocytes. Keratinocytes were derived from newborn BALB/C mice skin. The cells were incubated for 5 days in 24 wells plate. Cells were then incubated with PBS−/− as control or stimulated by LPS or TNFα. The PKCεinhibitors EPIP-1 (SEQ ID NO: 20), EPIP-2 (SEQ ID NO: 21), or EPIP-4 (SEQ ID NO: 23) were added. Medium containing secreted cytokines was collected after 48 hr and analyzed using ELISA. FIGS. 36-39 show the results for secretion of specific cytokines while Table 8 summarizes cytokine secretion for the various PKCε inhibitors: […]"}, "[5]": {"details": "10 ppm in gel, score 0 (no response) to 4 (uncontrollable pruritus)"}},
  "note": "Values joined by “and” are separate entries in the source; they are usually repeats but may differ in a detail not shown here. Equal values may be shown once. Where no end group is shown, it is not given here. The star is where a group is joined. Myristoyl = CCCCCCCCCCCCCC(=O)*",
  "data": [
    {"substance": "Myristoyl-Phe-Ala-Arg-Lys-Gly-Ala-Leu-Arg-Gln (Myristoyl-FARKGALRQ) [MPDY-1]", "values": [
      {"measurement": "Pruritus score after minutes of histamine, 5 minutes", "setting": "[1]; 1 μg/ml in DPBS, score 0 to 4", "result": 3},
      {"measurement": "Pruritus score after minutes of histamine, 15 minutes", "setting": "[1]; 1 μg/ml in DPBS, score 0 to 4", "result": 1},
      {"measurement": "Pruritus score after minutes of histamine, 5 minutes", "setting": "[1]; 10 μg/ml in DPBS, score 0 to 4", "result": "2 and 1"},
      {"measurement": "Pruritus score after minutes of histamine, 15 minutes", "setting": "[1]; 10 μg/ml in DPBS, score 0 to 4", "result": 0},
      {"measurement": "Pruritus score after minutes of histamine, 5 minutes", "setting": "[1]; 10 ppm in cream, score 0 to 4", "result": 1},
      {"measurement": "Pruritus score after minutes of histamine, 15 minutes", "setting": "[1]; 10 ppm in cream, score 0 to 4", "result": 0},
      {"measurement": "Pruritus score after minutes of histamine, 5 minutes", "setting": "[1]; [5]", "result": 2},
      {"measurement": "Pruritus score after minutes of histamine, 15 minutes", "setting": "[1]; [5]", "result": 0},
      {"measurement": "redness, inflammation and pruritus as compared with control", "setting": "[1]; histamine prick test, over the time course", "result": "significantly attenuated"},
      {"measurement": "Activation of macrophages (MAC-2 staining)", "setting": "[2]; 5 days, 1, 10 and 100 micrograms per mL", "result": "significantly inhibited"},
      {"measurement": "ICAM expression on basal keratinocytes and endothelial cells in blood vessels of the skin (ICAM-1 staining)", "setting": "[2]; five days post-wounding", "result": "down regulation"},
      {"measurement": "macrophage infiltration (Iba-1 staining)", "setting": "[2]; five days post-wounding", "result": "dose dependent effect"},
      {"measurement": "MPDY-1 concentration exhibiting the strongest inhibition of IKK activation", "setting": "[3]; lowest concentration tested", "result": 0.1, "unit": "mg/mL"},
      {"measurement": "TNFα induced IKK activation in keratinocytes", "setting": "[3]; pretreated 1 hour, dose dependant", "result": "significantly reduced"},
      {"measurement": "cytokine secretion from LPS and TNFα activated keratinocytes", "setting": "[4]; FIGS. 19 to 23", "result": "decrease"},
      {"measurement": "cytokine secretion from IL-17A activated keratinocytes", "setting": "[4]; FIGS. 24 to 27", "result": "decrease"},
      {"measurement": "cytokine secretion in keratinocytes", "setting": "[4]; stimulated by LPS, TNFα, or IL-17, 48 hr", "result": "effective in decreasing cytokine secretion"}
    ]}
  ]
}
